Test results taken from ChEMBL document CHEMBL1201862, “PubChem BioAssay data set” (2004).
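Compound exposure: 48 hours, 5 concentrations, 96-well plates. GI50 is the concentration that inhibits growth by half.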 Calls of active or inactive are those of the source. Rule as the data show it: active = GI50 up to about 1.1 µM and inactive = higher.

Columns and labels:
Experiment in all cases: DTP human tumour cell line panel, 48 h
KM12 = system: KM12
EKVX = system: EKVX
SK-MEL-28 = system: SK-MEL-28
LOX IMVI = system: LOX IMVI
SNB-75 = system: SNB-75
UACC-62 = system: UACC-62
HT-29 = system: HT-29
786-0 = system: 786-0
NCI/ADR-RES = system: NCI/ADR-RES
CCRF-CEM = system: CCRF-CEM
NCI-H23 = system: NCI-H23
ACHN = system: ACHN
M14 = system: M14
PC-3 = system: PC-3
SK-MEL-5 = system: SK-MEL-5
MCF7 = system: MCF7
HCT-15 = system: HCT-15
MDA-MB-231 = system: MDA-MB-231
RPMI-8226 = system: RPMI-8226
IGROV-1 = system: IGROV-1

Row | SMILES | GI50 (KM12) | GI50 (EKVX) | GI50 (SK-MEL-28) | GI50 (LOX IMVI) | GI50 (SNB-75) | GI50 (UACC-62) | GI50 (HT-29) | GI50 (786-0) | GI50 (NCI/ADR-RES) | GI50 (CCRF-CEM) | GI50 (NCI-H23) | GI50 (ACHN) | GI50 (M14) | GI50 (PC-3) | GI50 (SK-MEL-5) | GI50 (MCF7) | GI50 (HCT-15) | GI50 (MDA-MB-231) | GI50 (RPMI-8226) | GI50 (IGROV-1)
1 | C/C(=C/C(=O)Nn1c(Cc2ccccc2)n[nH]c1=O)C(=O)O | > 100 µM (inactive) | > 100 µM (inactive) | > 100 µM (inactive) | > 100 µM (inactive) | > 100 µM (inactive) | > 100 µM (inactive) | > 100 µM (inactive) | > 100 µM (inactive) | > 100 µM (inactive) | > 100 µM (inactive) | > 100 µM (inactive) | > 100 µM (inactive) | > 100 µM (inactive) | > 100 µM (inactive) | > 100 µM (inactive) | > 100 µM (inactive) | > 100 µM | > 100 µM (inactive) | > 100 µM (inactive) | > 100 µM (inactive)
2 | COc1ccc(/C=C2/C(=O)N(/C=C3\C(=O)Oc4ccccc4C3=O)/C(=N/C(C)=O)N2C)cc1OC | > 100 µM (inactive) | > 100 µM (inactive) | > 100 µM (inactive) | > 100 µM (inactive) | 45.9 µM (inactive) | > 100 µM (inactive) | > 100 µM (inactive) | > 100 µM (inactive) | > 100 µM (inactive) | > 100 µM (inactive) | > 100 µM (inactive) | > 100 µM (inactive) | > 100 µM (inactive) | > 100 µM (inactive) | > 100 µM (inactive) | > 100 µM (inactive) | > 100 µM | > 100 µM (inactive) | > 100 µM (inactive) | > 100 µM (inactive)
3 | COc1ccc(C(=O)N2CCN(c3ccc4[nH]c(=O)oc4c3)CC2)cc1 | > 100 µM (inactive) | 78.7 µM (inactive) | > 100 µM (inactive) | > 100 µM (inactive) | 62.4 µM (inactive) | 99.3 µM (inactive) | > 100 µM (inactive) | > 100 µM (inactive) | > 100 µM (inactive) | > 100 µM (inactive) | > 100 µM (inactive) | 69.8 µM (inactive) | > 100 µM (inactive) | > 100 µM (inactive) | > 100 µM (inactive) | > 100 µM (inactive) | > 100 µM | > 100 µM (inactive) | > 100 µM (inactive) | 99.1 µM (inactive)
4 | COc1ccc(/C=C/C(=O)Oc2ccccc2OC)cc1 | 9.04 µM (inactive) | 37.8 µM (inactive) | 73.5 µM (inactive) | 29.9 µM (inactive) | 27.2 µM (inactive) | 54.5 µM (inactive) | 16.4 µM (inactive) | 14 µM (inactive) | 27.8 µM (inactive) | 0.336 µM (active) | 33 µM (inactive) | > 27.6 µM (inactive) | 30.6 µM (inactive) | 44.4 µM (inactive) | 30.7 µM (inactive) | 44.4 µM (inactive) | 3.27 µM | 6.52 µM (inactive) | 1.95 µM (inactive) | 5.2 µM (inactive)
5 | O=S1(=O)CCC2=CC(C(F)(F)F)=CC(C(F)(F)F)=CN21 | 1.71 µM (inactive) | 2.93 µM (inactive) | 1.78 µM (inactive) | 0.348 µM (active) | 1.71 µM (inactive) | 1.64 µM (inactive) | 1.53 µM (inactive) | 0.415 µM (active) | 1.09 µM (active) | 0.0738 µM (active) | 1.19 µM (inactive) | 0.415 µM (active) | 0.693 µM (active) | 2.01 µM (inactive) | 1.42 µM (inactive) | 0.386 µM (active) | 0.485 µM | 2.78 µM (inactive) | 0.535 µM (active) | 1.84 µM (inactive)
6 | CC1=CC(=O)/C(=C/NC(=S)C(N)=S)C(=O)O1 | > 100 µM (inactive) | > 100 µM (inactive) | > 100 µM (inactive) | > 100 µM (inactive) | 19 µM (inactive) | > 100 µM (inactive) | > 100 µM (inactive) | > 100 µM (inactive) | > 100 µM (inactive) | 44 µM (inactive) | > 100 µM (inactive) | > 100 µM (inactive) | > 100 µM (inactive) | > 100 µM (inactive) | > 100 µM (inactive) | > 100 µM (inactive) | > 100 µM | > 100 µM (inactive) | > 100 µM (inactive) | > 100 µM (inactive)
7 | CN(C)CCNc1ccc(C(=O)NCCCN(C)CCCNC(=O)c2ccc(NCCN(C)C)c3c(=O)c4ccccc4[nH]c23)c2[nH]c3ccccc3c(=O)c12 | 0.0333 µM (active) | 0.478 µM (active) | 0.109 µM (active) | < 0.01 µM (active) | < 0.01 µM (active) | 0.0349 µM (active) | < 0.01 µM (active) | < 0.0119 µM (active) | 5.08 µM (inactive) | < 0.01 µM (active) | 0.0489 µM (active) | 0.0402 µM (active) | 0.218 µM (active) | 0.0783 µM (active) | 0.146 µM (active) | < 0.01 µM (active) | 3.81 µM | 0.024 µM (active) | < 0.01 µM (active) | < 0.01 µM (active)
8 | Cn1cnc([N+](=O)[O-])c1[Se]c1ncnc2nc[nH]c12 | 5.69 µM (inactive) | 21.2 µM (inactive) | 3.79 µM (inactive) | 0.497 µM (active) | 19.6 µM (inactive) | 1.77 µM (inactive) | 10 µM (inactive) | 10.4 µM (inactive) | 2.07 µM (inactive) | 9.51 µM (inactive) | 17.3 µM (inactive) | 17.1 µM (inactive) | 5.47 µM (inactive) | 20.6 µM (inactive) | 1.66 µM (inactive) | 13.6 µM (inactive) | 15.6 µM | 5 µM (inactive) | 5.01 µM (inactive) | 3.38 µM (inactive)
9 | O=C(O)c1cnccc1-c1cc(=O)[nH]n1-c1ccccc1 | 9.75 µM (inactive) | > 53.1 µM (inactive) | > 43.4 µM (inactive) | 6.76 µM (inactive) | > 68.5 µM (inactive) | 17.4 µM (inactive) | 21.4 µM (inactive) | > 79.6 µM (inactive) | 27.6 µM (inactive) | 34.4 µM (inactive) | 97.7 µM (inactive) | 35.8 µM (inactive) | 10.8 µM (inactive) | 16.3 µM (inactive) | 52.4 µM (inactive) | 43.2 µM (inactive) | 25.9 µM | > 100 µM (inactive) | 48 µM (inactive) | > 21.3 µM (inactive)
10 | CN(C)c1cc2ccccc2oc1=O | > 100 µM (inactive) | > 100 µM (inactive) | > 100 µM (inactive) | > 100 µM (inactive) | > 100 µM (inactive) | > 100 µM (inactive) | > 100 µM (inactive) | > 100 µM (inactive) | > 100 µM (inactive) | > 100 µM (inactive) | > 100 µM (inactive) | > 100 µM (inactive) | > 100 µM (inactive) | > 100 µM (inactive) | > 100 µM (inactive) | > 100 µM (inactive) | > 100 µM | > 100 µM (inactive) | > 100 µM (inactive) | > 100 µM (inactive)
11 | C[N+](C)(CCNC(=O)c1cccc2cc3ccccc3nc12)Cc1ccc([N+](=O)[O-])cc1 | > 100 µM (inactive) | > 100 µM (inactive) | > 100 µM (inactive) | > 100 µM (inactive) | > 100 µM (inactive) | > 100 µM (inactive) | > 100 µM (inactive) | > 100 µM (inactive) | > 100 µM (inactive) | > 100 µM (inactive) | > 100 µM (inactive) | > 100 µM (inactive) | > 100 µM (inactive) | > 100 µM (inactive) | 50 µM (inactive) | > 100 µM (inactive) | > 100 µM | > 100 µM (inactive) | > 100 µM (inactive) | > 100 µM (inactive)
12 | CC(=O)NC1CONC1=O (stereo not given) | > 100 µM (inactive) | > 100 µM (inactive) | > 100 µM (inactive) | > 100 µM (inactive) | > 100 µM (inactive) | > 100 µM (inactive) | > 100 µM (inactive) | > 100 µM (inactive) | > 100 µM (inactive) | > 100 µM (inactive) | > 100 µM (inactive) | > 100 µM (inactive) | > 100 µM (inactive) | > 100 µM (inactive) | > 100 µM (inactive) | > 100 µM (inactive) | > 100 µM | > 100 µM (inactive) | > 100 µM (inactive) | > 100 µM (inactive)
13 | Clc1cccc2[nH]ncc12 | > 100 µM (inactive) | 32.4 µM (inactive) | > 100 µM (inactive) | 58.1 µM (inactive) | 45.3 µM (inactive) | > 100 µM (inactive) | > 100 µM (inactive) | > 100 µM (inactive) | > 100 µM (inactive) | > 100 µM (inactive) |  | > 100 µM (inactive) |  | > 100 µM (inactive) | > 100 µM (inactive) | 64.6 µM (inactive) | > 100 µM | > 100 µM (inactive) | > 100 µM (inactive) | > 100 µM (inactive)
14 | Cc1n[n+]([O-])c(C)cc1[N+](=O)[O-] |  | 23.5 µM (inactive) | 18 µM (inactive) | 20.9 µM (inactive) | 23.8 µM (inactive) | 17.7 µM (inactive) | 14.1 µM (inactive) | 27.9 µM (inactive) | 20.6 µM (inactive) | 1.36 µM (inactive) | 16 µM (inactive) | 16.6 µM (inactive) | 15.7 µM (inactive) | 23.8 µM (inactive) | 16.3 µM (inactive) | 17.3 µM (inactive) | 15.9 µM | 18.2 µM (inactive) | 0.552 µM (active) | 21.8 µM (inactive)
15 | OCC1(CNc2cc(Cl)ncn2)CCC1 | > 100 µM (inactive) | > 100 µM (inactive) | > 100 µM (inactive) | > 100 µM (inactive) | > 100 µM (inactive) |  | > 100 µM (inactive) | > 100 µM (inactive) | > 100 µM (inactive) | > 100 µM (inactive) | > 100 µM (inactive) | > 100 µM (inactive) |  | > 100 µM (inactive) | > 100 µM (inactive) | > 100 µM (inactive) | > 100 µM | > 100 µM (inactive) | > 100 µM (inactive) | > 100 µM (inactive)
